# System: UACC-62
# Assay: Antiproliferative activity against human UACC-62 cells at 10 uM relative to control
# Format: functional
row,Structure (SMILES),Activity [%]
1,Nc1cccc(-c2nc3sccn3c2-c2ccnc(NCCCCNS(=O)(=O)c3ccc(Br)cc3)n2)c1,3.91

# Target: Serine/threonine-protein kinase B-raf (Homo sapiens, UniProt P15056, V600E)
# Assay: Inhibition of BRAF V600E mutant (unknown origin)
# Serine/threonine-protein kinase B-raf, sequence (P15056 2-766 V600E limits assumed): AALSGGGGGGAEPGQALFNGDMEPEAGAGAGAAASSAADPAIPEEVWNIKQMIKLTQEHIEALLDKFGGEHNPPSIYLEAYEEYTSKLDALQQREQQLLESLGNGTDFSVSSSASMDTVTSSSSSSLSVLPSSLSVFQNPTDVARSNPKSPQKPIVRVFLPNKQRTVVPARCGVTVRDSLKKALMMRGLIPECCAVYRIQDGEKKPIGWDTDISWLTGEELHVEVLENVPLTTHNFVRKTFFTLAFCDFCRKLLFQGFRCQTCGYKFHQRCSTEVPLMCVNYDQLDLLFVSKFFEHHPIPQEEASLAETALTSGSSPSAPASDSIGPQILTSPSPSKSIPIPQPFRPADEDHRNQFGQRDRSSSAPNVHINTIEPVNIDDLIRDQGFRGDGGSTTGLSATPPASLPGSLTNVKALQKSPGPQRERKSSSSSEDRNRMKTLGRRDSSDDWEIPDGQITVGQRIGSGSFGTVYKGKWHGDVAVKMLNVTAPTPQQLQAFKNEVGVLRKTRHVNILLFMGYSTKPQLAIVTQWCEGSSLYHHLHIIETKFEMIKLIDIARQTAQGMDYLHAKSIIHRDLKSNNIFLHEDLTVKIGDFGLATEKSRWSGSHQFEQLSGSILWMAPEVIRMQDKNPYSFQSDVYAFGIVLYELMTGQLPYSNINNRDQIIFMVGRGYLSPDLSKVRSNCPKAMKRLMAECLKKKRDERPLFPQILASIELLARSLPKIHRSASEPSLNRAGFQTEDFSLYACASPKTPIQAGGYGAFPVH
row,Structure (SMILES),IC50 [nM]
1,Nc1cccc(-c2nc3sccn3c2-c2ccnc(NCCNS(=O)(=O)c3ccc(Cl)cc3)n2)c1,16.7
2,Nc1cccc(-c2nc3sccn3c2-c2ccnc(NCCCCNS(=O)(=O)c3ccc(Br)cc3)n2)c1,4.31
3,Nc1cccc(-c2nc3sccn3c2-c2ccnc(NCCNS(=O)(=O)c3ccc(C(F)(F)F)cc3)n2)c1,141
4,Nc1cccc(-c2nc3sccn3c2-c2ccnc(NCCNS(=O)(=O)c3ccc(Br)cc3)n2)c1,73.7
5,COc1ccc(S(=O)(=O)NCCNc2nccc(-c3c(-c4cccc(N)c4)nc4sccn34)n2)cc1,23.4
6,Cc1ccc(S(=O)(=O)NCCNc2nccc(-c3c(-c4cccc(N)c4)nc4sccn34)n2)cc1,59.1
7,Nc1cccc(-c2nc3sccn3c2-c2ccnc(NCCNS(=O)(=O)c3cccc4ccccc34)n2)c1,152
8,Nc1cccc(-c2nc3sccn3c2-c2ccnc(NCCNS(=O)(=O)c3ccc(F)cc3)n2)c1,12.7
9,Nc1cccc(-c2nc3sccn3c2-c2ccnc(NCCNS(=O)(=O)c3cccc(F)c3)n2)c1,28.3
